Experimental data as given in paper PMC7114229 (Antiviral Research, 2019).
Like-named read-outs stand apart in the source and are kept apart here.

Legend:
gp120 = gp120 (Human immunodeficiency virus type 1 group M subtype B, UniProt P03375); experiment: biochemical; type: binding, HIV
in vitro [1] = conditions: human
HIV-1 (NL4.3) = experiment: Anti-HIV-1 activity in MT-4 cell cultures
HIV-2 (ROD) = experiment: Anti-HIV-2 activity in MT-4 cell cultures
in vitro [2] = conditions: human; remark: listed apart in the source
[3] = tested on: EV71 BrCr laboratory-adapted strain; experiment: Anti-EV71 assay, BrCr laboratory-adapted strain in RD cells; conditions: Enterovirus A
[4] = tested on: EV71 VP1_S184T_ P246S (RES); type: cell-based
MT-4 cells = conditions: read-out: CC50 (MT-4); MT-4 cultures; host cell viability

CN[C@@H]1[C@H](O[C@@H]2OC[C@@H](O)[C@H](O)[C@H]2O)[C@@H](O)[C@H](O[C@H]2c3cc(C)c(C(=O)N[C@H](C)C(=O)O)c(O)c3-c3c(cc4c(c3O)C(=O)c3cc(OC)cc(O)c3C4=O)[C@@H]2O)O[C@@H]1C [PRM-A, pradimycin A]
Kd (gp120; KD (10^−6) (M), apparent KD, SPR, three replicates): 6.92e-06 M | Kd (gp120; apparent KD for binding to gp120, SPR): 6.9e-06 M | kon (gp120; read-out: Ka (10^3) (1/M.s)): 2760 ± 1000 M⁻¹ s⁻¹ | CC50 (in vitro [1]): > 100 µM | EC50 (HIV-1 (NL4.3); Human immunodeficiency virus 1, MT4, read-out: HIV-1 EC50): 3.3 ± 1.2 µM | EC50 (HIV-2 (ROD); Human immunodeficiency virus 2, MT4, read-out: HIV-2 EC50): 5.9 ± 3.7 µM

CCOC(=O)c1ccc(OCCC2CCN(c3ccc(C)nn3)CC2)cc1 [Pirodavir, pirodavir]
CC50 (in vitro [2]): > 100 µM | EC90 ([3]; EV71, RD, read-out: EV71 EC90): 0.6 ± 0.2 µM

CCOC(=O)/C=C/[C@H](C[C@@H]1CCNC1=O)NC(=O)[C@@H](CC(=O)[C@@H](NC(=O)c1cc(C)on1)C(C)C)Cc1ccc(F)cc1 [Rupintrivir, rupintrivir]
antiviral activity against the mutant virus strain ([4]; EV-71 variant (RES)): retained full antiviral activity | EC50 ([4]; read-out: VP1_S184T_ P246S (RES) EC50): 0.016 ± 0.006 µM | EC50 ([3]; EV71|EVA71, RD, read-out: EV-A71 BrCr (WT) EC50): 0.014 ± 0.004 µM

dextran sulfate-5000 [DS-5000]
CC50 (MT-4 cells): > 20 µM | EC50 (HIV-1 (NL4.3); read-out: HIV-1 EC50, MT-4 cultures, inhibition of virus-induced cytopathicity by 50%): 0.07 ± 0.02 µM | EC50 (HIV-2 (ROD); read-out: HIV-2 EC50, MT-4 cultures, inhibition of virus-induced cytopathicity by 50%): 0.03 ± 0.01 µM
